This note sets out measurements from ChEMBL document CHEMBL1201862, “PubChem BioAssay data set” (2004).

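Where inhibition never reached the appropriate level, the endpoint shown equals the highest concentration tested. Otherwise, values were interpolated linearly from a five-concentration, 48-hour dose response in 96-well plates. GI50: concentration for 50% inhibition of growth.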 Calls of active or inactive are those of the source. No stated cut-off is given here; in the data, active = GI50 up to about 1.1 µM and inactive = higher. A value given as a limit tells only on which side of the number the result lay.

Among the test systems are EKVX; HOP-62; HT-29; Hs-578T; IGROV-1; K562; LOX IMVI; M14; NCI-H226; OVCAR-3; OVCAR-5; RXF 393; SK-MEL-2; TK-10; U-251; UACC-257; UO-31; HL-60; RPMI-8226; SK-OV-3.
Experiment in all cases: NCI tumour cell line growth inhibition, 48 h

In the case of `CN(C)CN1CSC(=S)N(CN(C)C)C1`, the GI50 in the assay with EKVX was > 100 µM (inactive); in the assay with HOP-62 it was > 100 µM (inactive); in the assay on HT-29, > 100 µM (inactive); in the assay on Hs-578T, > 100 µM (inactive); in the assay on IGROV-1, 54.3 µM (inactive); in the assay on K562, 44.5 µM (inactive). Further, the GI50 with LOX IMVI, in the assay on M14, in the assay on NCI-H226, in the assay on OVCAR-3, in the assay with OVCAR-5 and with RXF 393 was > 100 µM (inactive) each time. Besides, the GI50 was 33.3 µM (inactive) with SK-MEL-2; > 100 µM (inactive) with TK-10; 32.3 µM (inactive) with U-251; > 100 µM (inactive) with UACC-257; > 100 µM (inactive) in the assay on UO-31.
`CC(Nc1cc(=O)n(C)c(=O)[nH]1)c1ccccc1` (centres undefined): the GI50 in the assay with EKVX, with HL-60, with HOP-62, with HT-29, with Hs-578T and with IGROV-1 was > 100 µM (inactive) each time. The GI50 with K562, in the assay on LOX IMVI, with M14, with OVCAR-3, with OVCAR-5 and with RXF 393 was > 100 µM (inactive) in each case. In addition, the GI50 in the assay with SK-MEL-2, in the assay with TK-10, with U-251, with UACC-257 and in the assay with UO-31 was > 100 µM (inactive) each time.
`CCOC(=O)c1c(N2CCCC2)[nH]c(=O)c(C(c2ccc(OC)cc2)c2c(O)c(C(=O)OCC)c(N3CCCC3)[nH]c2=O)c1O`: the GI50 in the assay on EKVX is 44.8 µM (inactive); in the assay with HOP-62, 46.6 µM (inactive); in the assay on Hs-578T, > 100 µM (inactive); with K562, > 100 µM (inactive); in the assay with LOX IMVI, > 100 µM (inactive); in the assay on M14 it was > 100 µM (inactive). Further, the GI50 with NCI-H226 is > 100 µM (inactive); with OVCAR-3, > 100 µM (inactive); in the assay on OVCAR-5, 52.7 µM (inactive); in the assay on RPMI-8226, > 100 µM (inactive); in the assay on RXF 393 it was 57.3 µM (inactive); with SK-MEL-2, 5 µM (inactive). In addition, the GI50 with SK-OV-3 is > 100 µM (inactive); with TK-10, 42.8 µM (inactive); in the assay with U-251, 48.9 µM (inactive); with UACC-257 it was > 100 µM (inactive); with UO-31, > 100 µM (inactive).
As for `Cc1ccc(S(=O)(=O)c2[nH]cc(/C(=C\C3CCCCC3)[N+](=O)[O-])c2C2CCCCC2)cc1`, the GI50 is 0.354 µM (active) in the assay on EKVX; 1.41 µM (inactive) with HOP-62; 0.497 µM (active) in the assay with HT-29; 0.324 µM (active) in the assay on Hs-578T; 0.314 µM (active) in the assay with IGROV-1; 0.251 µM (active) in the assay on K562. Besides, the GI50 with LOX IMVI was 0.202 µM (active); in the assay on M14, 0.236 µM (active); with NCI-H226, 0.832 µM (active); in the assay with OVCAR-3 it was 0.27 µM (active); in the assay on OVCAR-5 it was 0.822 µM (active); in the assay with RPMI-8226, 0.251 µM (active). The GI50 was 0.196 µM (active) in the assay on RXF 393; 0.377 µM (active) with SK-MEL-2; 0.544 µM (active) in the assay on TK-10; 0.653 µM (active) in the assay with U-251; 0.393 µM (active) in the assay with UACC-257; 0.493 µM (active) in the assay with UO-31.
`c1ccc(-c2cs[s+]c2)cc1`: the GI50 with EKVX was > 100 µM (inactive); in the assay with HL-60, 41.9 µM (inactive); with HOP-62, > 100 µM (inactive); with HT-29, > 100 µM (inactive); in the assay on Hs-578T it was > 100 µM (inactive); with IGROV-1 it was > 100 µM (inactive). Besides, the GI50 is 34.2 µM (inactive) in the assay with K562; > 100 µM (inactive) with LOX IMVI; > 100 µM (inactive) with M14; > 100 µM (inactive) in the assay on NCI-H226; 67 µM (inactive) with OVCAR-3; > 100 µM (inactive) in the assay with OVCAR-5. Moreover, the GI50 with RXF 393, in the assay on SK-OV-3, with TK-10, with U-251, with UACC-257 and in the assay with UO-31 was > 100 µM (inactive) in each case.
On to `O=c1[nH]c(=O)n(C2CC(O)C(CO)O2)cc1OCC1CCCCC1` (centres undefined), for which the GI50 with EKVX, in the assay with HL-60, with HOP-62, with HT-29, in the assay with Hs-578T and in the assay with IGROV-1 was > 100 µM (inactive) throughout. The GI50 with K562, in the assay on LOX IMVI, with M14, in the assay with NCI-H226, in the assay with OVCAR-3 and with OVCAR-5 was > 100 µM (inactive) each time. Also, the GI50 with RXF 393, in the assay on SK-OV-3, in the assay with TK-10, in the assay with U-251, with UACC-257 and in the assay on UO-31 was > 100 µM (inactive) in each case.
With `CCCCCCOc1ccc(NC2=C(Cl)C(=O)c3ncccc3C2=O)cc1`, the GI50 was > 10 µM (inactive) in the assay on EKVX; 1.92 µM (inactive) with HOP-62; 3.87 µM (inactive) in the assay with HT-29; 1.79 µM (inactive) in the assay on Hs-578T; 2.77 µM (inactive) in the assay on IGROV-1; 2.59 µM (inactive) in the assay on K562. For the same compound, the GI50 was 1.61 µM (inactive) with LOX IMVI; 1.88 µM (inactive) with M14; 5.61 µM (inactive) in the assay with NCI-H226; 2.1 µM (inactive) in the assay with OVCAR-3; 7.35 µM (inactive) with OVCAR-5; 1.84 µM (inactive) in the assay with RXF 393. For the same compound, the GI50 with SK-OV-3 is > 10 µM (inactive); in the assay on TK-10, 4.31 µM (inactive); in the assay with U-251, 1.61 µM (inactive); in the assay on UACC-257, 1.9 µM (inactive); with UO-31, 1.39 µM (inactive).
Consider `O=C1CCCC2C(O)CCC[C@H]12` (some centres undefined), for which the GI50 with EKVX, with HL-60, in the assay on HOP-62, with HT-29, in the assay with Hs-578T and in the assay on IGROV-1 was > 100 µM (inactive) throughout. Besides, the GI50 in the assay with K562 is > 100 µM (inactive); with LOX IMVI it was > 100 µM (inactive); in the assay on M14, > 100 µM (inactive); with NCI-H226, > 100 µM (inactive); in the assay with OVCAR-5 it was > 100 µM (inactive); in the assay on RXF 393, 11.4 µM (inactive). For the same compound, the GI50 was > 100 µM (inactive) in the assay with SK-MEL-2; > 100 µM (inactive) in the assay with SK-OV-3; > 100 µM (inactive) with TK-10; > 100 µM (inactive) with U-251; > 100 µM (inactive) in the assay on UACC-257; 51.1 µM (inactive) in the assay with UO-31.
Turning to `O=C1Nc2ccccc2Cn2c1cc1oc(-c3ccccc3)cc12`, the GI50 with EKVX is 33.7 µM (inactive); in the assay on HL-60, > 100 µM (inactive); in the assay on HOP-62, 21.6 µM (inactive); in the assay with HT-29, > 100 µM (inactive); in the assay on Hs-578T, 10.9 µM (inactive); with IGROV-1, 29.8 µM (inactive). Further, the GI50 was 50.2 µM (inactive) in the assay with K562; > 100 µM (inactive) with LOX IMVI; 19.2 µM (inactive) in the assay with OVCAR-3; 62.4 µM (inactive) in the assay with OVCAR-5; 21.4 µM (inactive) in the assay on RXF 393; 44.2 µM (inactive) in the assay with SK-MEL-2. The GI50 in the assay with SK-OV-3 was 28 µM (inactive); with TK-10, > 100 µM (inactive); in the assay with U-251 it was 16 µM (inactive); in the assay with UACC-257 it was > 100 µM (inactive).
Consider `CC(=O)N/N=C1/CC[C@@]2(C)C(=CC[C@H]3C4CCC(C(C)CCCC(C)C)[C@@]4(C)CCC32)C1(C)C` (some centres undefined), for which the GI50 with EKVX was > 100 µM (inactive); in the assay on HL-60, 42 µM (inactive); with HOP-62, > 100 µM (inactive); in the assay with HT-29 it was 31.5 µM (inactive); in the assay with Hs-578T, > 100 µM (inactive); with IGROV-1, 57.4 µM (inactive). Moreover, the GI50 in the assay with K562 was 15.9 µM (inactive); in the assay with LOX IMVI it was 3.94 µM (inactive); with M14, 48 µM (inactive); in the assay on NCI-H226, > 100 µM (inactive); in the assay on OVCAR-3, 74.8 µM (inactive); in the assay with OVCAR-5 it was > 100 µM (inactive). Besides, the GI50 is > 100 µM (inactive) in the assay on RPMI-8226; 58.3 µM (inactive) with SK-MEL-2; > 100 µM (inactive) with SK-OV-3; > 100 µM (inactive) in the assay with TK-10; 75.5 µM (inactive) in the assay with U-251; 36.6 µM (inactive) in the assay with UACC-257. Moreover, the GI50 with UO-31 is 82 µM (inactive).
As for `CC(C)=CCC/C(C)=C/COc1c2ccoc2cc2oc(=O)ccc12` [BERGAMOTTIN], the GI50 was 22.2 µM (inactive) in the assay on EKVX; 16.4 µM (inactive) with HL-60; 43.4 µM (inactive) with HOP-62; 19.7 µM (inactive) in the assay with HT-29; 48.1 µM (inactive) in the assay with Hs-578T; 39.5 µM (inactive) in the assay on IGROV-1. For the same compound, the GI50 in the assay with K562 was 22.4 µM (inactive); in the assay on LOX IMVI it was 21 µM (inactive); with M14, 27.7 µM (inactive); in the assay on NCI-H226, 30.1 µM (inactive); in the assay on OVCAR-3 it was 25.4 µM (inactive); with OVCAR-5 it was 23.8 µM (inactive). For the same compound, the GI50 in the assay on RPMI-8226 was 17.1 µM (inactive); with SK-MEL-2 it was 16 µM (inactive); with SK-OV-3, 27.5 µM (inactive); in the assay with TK-10 it was 42.2 µM (inactive); with U-251, 20.6 µM (inactive); with UACC-257 it was 24.7 µM (inactive). Besides, the GI50 in the assay with UO-31 was 21.5 µM (inactive).
